Patent US9469613B2, “(N-(cyanomethyl)-4-(2-(4-morpholinophenylamino)pyrimidin-4-yl)benzamide” (Gilead Sciences, Inc., priority 2014, dated 2016)
Counter-ions that a name gives are not always drawn. One block for each compound: values may come before it.

How the values were obtained:
[1] = Mass balance/recovery, metabolite profile, pharmacokinetics and safety of radiolabeled CYT-0387; format: in vivo, human
Procedure: CYT-0387 is a selective small molecule inhibitor of Janus kinase 1 and 2 (JAK1/JAK2) currently under investigation to treat myelofibrosis. This study evaluated the mass balance/recovery, metabolite profile, pharmacokinetics, and safety of radiolabeled CYT-0387 in humans.
Six healthy individuals (subjects) received a single oral dose of 200 mg CYT-0387 containing ˜100 μCi of [^14C]-CYT-0387. Blood samples were collected up to 21 days or until plasma radioactivity in 2 consecutive samples was below detection limit or urine and feces sampling was discontinued. Urine/feces samples were collected up to 21 days or until ≧90% administered dose was recovered in feces and urine and radioactivity in 2 consecutive sampling intervals were ≦1% administered dose. Plasma concentrations of CYT-0387 and metabolites were measured using LC-MS/MS and total radioactivity assessed by liquid scintillation counting. Metabolite profiling was performed in select urine, feces, and plasma samples. Safety assessments were performed throughout the study.

[2] = tested on: hyperproliferative diseases (PV, ET, PMF), myelofibrosis; conditions: cited from earlier work
[3] = target: TGFBR1 (Homo sapiens (Human), UniProt P36897); assay: In vitro enzyme inhibition assay (LanthaScreen); format: biochemical; conditions: TGFBR1, n = 3
[4] = target: ALK6 (BMPR1B) (Homo sapiens (Human), UniProt O00238); assay: Biochemical binding assay (DiscoveRx)
Procedure: (§1) In addition, biochemical binding assays (DiscoveRx) and in vitro enzyme inhibition assays (LanthaScreen, Life Technologies) were conducted to determine the binding affinity and inhibition activities of CYT-0387 to Type-I BMPR-kinases (ALK2, ALK3, and ALK6) were conducted. Transforming growth factor beta receptor 1 (TGFBR1, ALK5) was used as a control to determine the selectivity to Type-I BMPR-kinases.

[5] = target: ALK2 (Acvr1) (Homo sapiens (Human), UniProt Q04771); assay: Biochemical binding assay (DiscoveRx)
Procedure: as §1

[6] = target: ALK3 (BMPR1a) (Homo sapiens (Human), UniProt P36894); assay: Biochemical binding assay (DiscoveRx)
Procedure: as §1

[7] = tested on: hepcidin production in HepG2 cells; assay: BMP6-mediated hepcidin induction in HepG2 cells (qRT-PCR); format: cell-based; conditions: for hepcidin fold-change induction (normalized percentage): HepG2, 10 ng/mL BMP6 6 hours, 100% = vehicle
From the text: This study characterized the effect of CYT-0387 on hepcidin production in HepG2 cells, a hepatocellular carcinoma cell line. Bone morphogenic proteins (BMPs) is shown to be involved in the transcriptional induction of hepcidin in hepatocytes by facilitating the association of constitutively active Type-II BMP receptor kinases (BMPR-kinase) with Type-I BMPR-kinase (Andriopoulos, et al. Nat Genet, 2009. 41(4): p482-7; Zhao, et al., J Clin Invest, 2013. 123(6): p2337-43).
HepG2 cells were preincubated for 2 hours with CYT-0387 (ranging from 0 μM to 10 μM) in the presence of 1% FBS then stimulated for 6 hours with 10 ng/mL of BMP6. Total RNA was isolated from the cells and analyzed for the levels of hepcidin by qRT-PCR. GUSB (glucuronidase, beta) was used as a house keeping control to normalize the levels measured by qRT-PCR. The percentage of hepcidin fold-change induction was calculated (100% is equal to hepcidin induction in vehicle treated cells) and summarized in Table 9.

[8] = Solid form hygroscopicity and stability; format: physicochemical; conditions: conditions suitable for manufacturing and/or storage
Procedure: Dynamic Vapor Sorption: The hygroscopicity of N-(cyanomethyl)-4-(2-(4-morpholinophenylamino)pyrimidin-4-yl)benzamide dihydrochloride monohydrate Form II was evaluated at room temperature using a dynamic vapor sorption (DVS) instrument (TGA Q5000 TA Instruments, New Castle, Del.). Water adsorption and desorption were studied as a function of relative humidity (RH) over the range of 0 to 90% at room temperature. The humidity in the chamber was increased from the initial level 50% RH) to 60% RH and held until the solid and atmosphere reached equilibration. The equilibrium test was continued until passed or expired after 10 hours. At this point, RH was raised 10% higher and the process was repeated until 90% RH was reached and equilibrated. During this period, the water sorption was monitored. For desorption, the relative humidity was decreased in a similar manner to measure a full sorption/desorption cycle. All experiments were operated in dm/dt mode (mass variation over time) to determine the equilibration endpoint. Approximately 4 mg of solid CYT-0387 was used. Data analysis was conducted using Universal Analysis 2000 Version 4.7A (TA Instruments, New Castle, Del., USA).

[9] = Stability of 100 mg tablet formulation with different propyl gallate levels; format: physicochemical; conditions: for Total Degradation: 100 mg tablet, 40° C./75% RH
Procedure: Next, the stability of 100 mg tablet formulation comprising CYT-0387 Form II was examined in the presence of 0%, 0.2%, 0.5%, or 1.0% propyl gallate at 25° C./60% RH (relative humidity) or 40° C./75% RH for up to 6 months. The degradation profiles were determined at month 0, 1, 3, and 6.

[10] = single oral dose 200 mg, healthy subjects

TGFBR1, sequence (P36897 34-503): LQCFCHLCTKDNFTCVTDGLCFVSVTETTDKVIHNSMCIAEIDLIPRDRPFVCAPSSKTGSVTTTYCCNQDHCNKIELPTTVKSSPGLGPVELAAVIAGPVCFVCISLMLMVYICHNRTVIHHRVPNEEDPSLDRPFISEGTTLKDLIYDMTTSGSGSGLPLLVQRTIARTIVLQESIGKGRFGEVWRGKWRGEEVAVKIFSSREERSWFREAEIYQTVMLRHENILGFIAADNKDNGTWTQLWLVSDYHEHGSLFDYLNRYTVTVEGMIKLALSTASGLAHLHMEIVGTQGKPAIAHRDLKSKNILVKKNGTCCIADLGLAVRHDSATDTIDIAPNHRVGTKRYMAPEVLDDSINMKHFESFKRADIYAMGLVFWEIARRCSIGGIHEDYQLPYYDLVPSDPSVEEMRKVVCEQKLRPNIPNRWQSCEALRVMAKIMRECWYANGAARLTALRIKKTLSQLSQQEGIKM
ALK6 (BMPR1B), sequence (O00238 14-502): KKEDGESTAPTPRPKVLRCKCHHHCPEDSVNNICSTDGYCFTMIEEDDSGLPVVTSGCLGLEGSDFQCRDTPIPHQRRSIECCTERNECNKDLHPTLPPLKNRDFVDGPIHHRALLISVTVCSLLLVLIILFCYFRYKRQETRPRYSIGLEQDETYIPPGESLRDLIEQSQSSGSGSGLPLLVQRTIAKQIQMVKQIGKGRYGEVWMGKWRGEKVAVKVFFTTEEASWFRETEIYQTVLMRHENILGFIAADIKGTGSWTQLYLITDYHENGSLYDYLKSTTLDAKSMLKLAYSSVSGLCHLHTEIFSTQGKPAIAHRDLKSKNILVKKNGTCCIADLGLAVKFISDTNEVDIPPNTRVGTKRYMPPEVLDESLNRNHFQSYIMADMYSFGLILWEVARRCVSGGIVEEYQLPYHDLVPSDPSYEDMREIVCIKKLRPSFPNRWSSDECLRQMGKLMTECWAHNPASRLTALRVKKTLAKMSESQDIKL
ALK2 (Acvr1), sequence (Q04771 21-509): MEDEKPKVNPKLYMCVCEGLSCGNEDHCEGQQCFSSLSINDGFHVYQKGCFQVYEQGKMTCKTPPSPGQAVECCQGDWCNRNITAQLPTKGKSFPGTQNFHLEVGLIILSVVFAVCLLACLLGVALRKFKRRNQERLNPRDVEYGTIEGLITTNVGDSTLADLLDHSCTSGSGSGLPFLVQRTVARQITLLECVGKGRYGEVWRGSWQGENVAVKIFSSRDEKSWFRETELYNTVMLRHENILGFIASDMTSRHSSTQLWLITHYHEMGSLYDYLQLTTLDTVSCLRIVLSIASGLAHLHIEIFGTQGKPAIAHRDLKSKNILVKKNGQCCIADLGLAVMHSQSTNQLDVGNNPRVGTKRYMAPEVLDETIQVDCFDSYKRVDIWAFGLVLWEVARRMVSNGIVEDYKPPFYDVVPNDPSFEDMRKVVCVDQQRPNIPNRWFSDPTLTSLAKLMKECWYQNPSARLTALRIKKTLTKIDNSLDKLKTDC
ALK3 (BMPR1a), sequence (P36894 24-532): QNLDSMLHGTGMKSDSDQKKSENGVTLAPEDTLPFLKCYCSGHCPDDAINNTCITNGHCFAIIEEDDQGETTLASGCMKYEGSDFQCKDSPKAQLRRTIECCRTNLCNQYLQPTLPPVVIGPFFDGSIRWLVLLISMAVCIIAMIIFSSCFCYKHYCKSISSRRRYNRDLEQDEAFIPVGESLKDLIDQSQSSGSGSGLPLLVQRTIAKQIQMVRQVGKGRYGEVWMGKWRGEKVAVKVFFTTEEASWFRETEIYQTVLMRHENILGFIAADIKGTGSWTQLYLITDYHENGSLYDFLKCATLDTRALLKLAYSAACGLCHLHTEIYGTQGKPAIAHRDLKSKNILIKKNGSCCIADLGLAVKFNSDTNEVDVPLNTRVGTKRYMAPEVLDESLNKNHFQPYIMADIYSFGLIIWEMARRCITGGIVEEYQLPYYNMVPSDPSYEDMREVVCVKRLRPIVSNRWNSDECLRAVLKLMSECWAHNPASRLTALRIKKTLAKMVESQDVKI

IC50 [3]: 205 nM
Kd [4]: 19 nM
Kd [5]: 25 nM
Kd [6]: 1000 nM
Structure (SMILES): N#CCNC(=O)c1ccc(-c2ccnc(Nc3ccc(N4CCOCC4)cc3)n2)cc1 [CYT-0387, N-(cyanomethyl)-4-(2-(4-morpholinophenylamino)pyrimidin-4-yl)benzamide]
excreted in feces ([1]; feces): 12.6 % of the dose
recovery of radioactivity in feces ([1]; feces): 69.3%
overall recovery of radioactivity ([1]; feces and urine): 96.7%
share of circulating radioactivity ([1]; plasma): 17.3%
time of maximum concentration of drug-derived radioactivity in plasma ([1]; postdose, single oral 200 mg [14C]-CYT-0387): 2.5 h
most frequently reported AEs [1, 10]: dizziness, headache, and nausea
serious or severe adverse events [1, 10]: No Grade 3 or 4 AEs, SAEs, or AEs leading to study discontinuation
tolerability [1, 10]: well tolerated
recovery of radioactivity in urine ([1]; urine): 27.5%
efficacy in treating hyperproliferative diseases (PV, ET, PMF) ([2]; clinical studies): effective
anemia and/or spleen responses ([2]; patients having myelofibrosis): improvement
effect on BMP6-mediated hepcidin induction ([7]; 0 μM to 10 μM, HepG2): dose-dependent inhibition
hepcidin fold-change induction (normalized percentage) ([7]; 0.020 μM): 115%
hepcidin fold-change induction (normalized percentage) ([7]; 0.039 μM): 91%
hepcidin fold-change induction (normalized percentage) ([7]; 0.078 μM): 74%
hepcidin fold-change induction (normalized percentage) ([7]; 0.156 μM): 86%
hepcidin fold-change induction (normalized percentage) ([7]; 0.313 μM): 89%
hepcidin fold-change induction (normalized percentage) ([7]; 0.625 μM): 45%
hepcidin fold-change induction (normalized percentage) ([7]; 1.25 μM): 28%
hepcidin fold-change induction (normalized percentage) ([7]; 2.5 μM): 6%
hepcidin fold-change induction (normalized percentage) ([7]; 5.0 μM): −4%
hepcidin fold-change induction (normalized percentage) ([7]; 10.0 μM): −3%

thermodynamic stability of the dihydrochloride salt form [8]: thermodynamically stable form
Total Degradation ([9]; propyl gallate 0%, month 0): 0.10%
Total Degradation ([9]; propyl gallate 0%, month 1): 0.68%
Total Degradation ([9]; propyl gallate 0%, month 3): 1.01%
Total Degradation ([9]; propyl gallate 0%, month 6): 1.28%
Total Degradation ([9]; propyl gallate 0.2%, month 0): 0.10%
Total Degradation ([9]; propyl gallate 0.2%, month 1): 0.34%
Total Degradation ([9]; propyl gallate 0.2%, month 3): 0.67%
Total Degradation ([9]; propyl gallate 0.2%, month 6): 0.80%
Total Degradation ([9]; propyl gallate 0.5%, month 0): 0.11%
Total Degradation ([9]; propyl gallate 0.5%, month 1): 0.39%
Total Degradation ([9]; propyl gallate 0.5%, month 3): 0.67%
Total Degradation ([9]; propyl gallate 0.5%, month 6): 0.95%
Total Degradation ([9]; propyl gallate 1.0%, month 0): 0.14%
Total Degradation ([9]; propyl gallate 1.0%, month 1): 0.44%
Total Degradation ([9]; propyl gallate 1.0%, month 3): 0.87%
Total Degradation ([9]; propyl gallate 1.0%, month 6): 1.34%
degradation in 100 mg tablet ([9]; 25° C./60% RH, propyl gallate at 0.2%, 0.5%, and 1.0% (data not shown)): reduced
Structure (SMILES): N#CCNC(=O)c1ccc(-c2ccnc(Nc3ccc(N4CCOCC4)cc3)n2)cc1 [CYT-0387 Form II, N-(cyanomethyl)-4-(2-(4-morpholinophenylamino)pyrimidin-4-yl)benzamide dihydrochloride monohydrate Form II]
